Results taken from patent US20230398130A1, “METHODS AND COMPOSITIONS FOR DIFFERENTIATING STEM CELLS” (Massachusetts Institute of Technology, priority 2020, published 2023).

Experiments:
ISC-enriched organoids [1] = experiment: Primary screen, 384-well 2.5-D organoid differentiation (ENR+CD, 6 days, Target Selective Inhibitor Library, vs whole-plate median): ATP (CellTiter-Glo 3D, CTG); details: for Z.CTG (standard z score): primary screen; for Z.CTG: standard z score of FC
ISC-enriched organoids [2] = experiment: Secondary (validation) screen, 384-well 2.5-D, ENR+CD 6 days, n=8 wells, vs ENR+CD+DMSO control: carbachol-induced lysozyme secretion (LYZ.S); assay type: cell-based, murine
Experimental: (§1) Drugs were tested at a narrowed dose range around each treatment's identified optimal dose from the primary screen (4× below, 2× above and below).
(§2) High-throughput screening.
(§3) Secondary lysozyme secretion assay screen. Confirmatory secondary screening with primary hits was performed using the above 384-well plate method. The screen was conducted with 4-plate replicates with a base media of ENR+CD. Media was supplemented with compound at day 0 and day 3 (n=8 well replicates per dose) at four different doses: two-fold above, two-fold below, and four-fold below the optimal final dose for each respective treatment. Additionally, each plate carried a large number of ENR+DMSO or ENR+CD+DMSO (vehicle) control wells (n=100 for ATP, and n=25 for LYZ.NS and LYZ.S) for robust normalization. ATP, non-stimulated lysozyme activity and CCh-stimulated lysozyme activity was again measured and the collected data was again processed in a custom R-script, per primary screen with slight modification. Values were log10 transformed, and a plate-wise FC was calculated for each well based on the median value of ENR+CD+DMSO (vehicle) control wells to normalize plate to plate variability.

ISC-enriched organoids [3] = experiment: Secondary (validation) screen, 384-well 2.5-D, ENR+CD 6 days, n=8 wells, vs ENR+CD+DMSO control: ATP (CTG); assay type: cell-based, murine
Experimental: as §1, §2, §3

ISC-enriched organoids [4] = experiment: Secondary (validation) screen, 384-well 2.5-D, ENR+CD 6 days, n=8 wells, vs ENR+CD+DMSO control: basal lysozyme secretion (LYZ.NS); assay type: cell-based, murine
Experimental: as §1, §2, §3

COc1ccc(C2CNC(=O)C2)cc1OC1CCCC1 (stereo not drawn) [Rolipram]
Z.CTG (standard z score) (ISC-enriched organoids [1]; Dose 0.08 uM): 0.850
Z.CTG (standard z score) (ISC-enriched organoids [1]; Dose 0.40 uM): 0.370
Z.CTG (standard z score) (ISC-enriched organoids [1]; Dose 2.00 uM): 0.945
Z.CTG (standard z score) (ISC-enriched organoids [1]; Dose 10.00 uM): 0.714
Z.LYZ.S (ISC-enriched organoids [2]; Dose 0.50 uM): −0.631
repSSMD.LYZ.S (ISC-enriched organoids [2]; Dose 0.50 uM): −0.936
Z.LYZ.S (ISC-enriched organoids [2]; Dose 1.00 uM): 0.801
repSSMD.LYZ.S (ISC-enriched organoids [2]; Dose 1.00 uM): 1.107
Z.LYZ.S (ISC-enriched organoids [2]; Dose 4.00 uM): −0.543
repSSMD.LYZ.S (ISC-enriched organoids [2]; Dose 4.00 uM): −0.736
Z.LYZ.S (ISC-enriched organoids [2]; dose 2.00 uM): 0.227
repSSMD.LYZ.S (ISC-enriched organoids [2]; dose 2.00 uM): 0.169
Z.CTG (ISC-enriched organoids [3]; Dose 0.50 uM): 0.477
repSSMD.CTG (ISC-enriched organoids [3]; Dose 0.50 uM): 0.368
Z.CTG (ISC-enriched organoids [3]; Dose 1.00 uM): 1.198
repSSMD.CTG (ISC-enriched organoids [3]; Dose 1.00 uM): 0.832
Z.CTG (ISC-enriched organoids [3]; Dose 4.00 uM): 0.583
repSSMD.CTG (ISC-enriched organoids [3]; Dose 4.00 uM): 0.447
Z.CTG (ISC-enriched organoids [3]; dose 2.00 uM): 1.819
repSSMD.CTG (ISC-enriched organoids [3]; dose 2.00 uM): 1.420
Z.LYZ.NS (ISC-enriched organoids [4]; Dose 0.50 uM): −0.342
repSSMD.LYZ.NS (ISC-enriched organoids [4]; Dose 0.50 uM): −0.478
Z.LYZ.NS (ISC-enriched organoids [4]; Dose 1.00 uM): 1.213
repSSMD.LYZ.NS (ISC-enriched organoids [4]; Dose 1.00 uM): 1.715
Z.LYZ.NS (ISC-enriched organoids [4]; Dose 4.00 uM): −0.407
repSSMD.LYZ.NS (ISC-enriched organoids [4]; Dose 4.00 uM): −0.543
Z.LYZ.NS (ISC-enriched organoids [4]; dose 2.00 uM): 0.793
repSSMD.LYZ.NS (ISC-enriched organoids [4]; dose 2.00 uM): 0.950

N#CC[C@H](C1CCCC1)n1cc(-c2ncnc3[nH]ccc23)cn1 [Ruxolitinib (INCB018424), Ruxolitinib]
Z.CTG (standard z score) (ISC-enriched organoids [1]; Dose 0.08 uM): 1.093
Z.CTG (standard z score) (ISC-enriched organoids [1]; Dose 0.40 uM): 0.867
Z.CTG (standard z score) (ISC-enriched organoids [1]; Dose 2.00 uM): 1.062
Z.CTG (standard z score) (ISC-enriched organoids [1]; Dose 10.00 uM): 1.140
Z.LYZ.S (ISC-enriched organoids [2]; Dose 2.50 uM): −1.400
repSSMD.LYZ.S (ISC-enriched organoids [2]; Dose 2.50 uM): −1.806
Z.LYZ.S (ISC-enriched organoids [2]; Dose 5.00 uM): −1.667
repSSMD.LYZ.S (ISC-enriched organoids [2]; Dose 5.00 uM): −2.281
Z.LYZ.S (ISC-enriched organoids [2]; Dose 20.00 uM): 0.208
repSSMD.LYZ.S (ISC-enriched organoids [2]; Dose 20.00 uM): 0.382
Z.LYZ.S (ISC-enriched organoids [2]; dose 10.00 uM): −1.289
repSSMD.LYZ.S (ISC-enriched organoids [2]; dose 10.00 uM): −2.212
Z.CTG (ISC-enriched organoids [3]; Dose 2.50 uM): −0.128
repSSMD.CTG (ISC-enriched organoids [3]; Dose 2.50 uM): −0.090
Z.CTG (ISC-enriched organoids [3]; Dose 5.00 uM): −2.016
repSSMD.CTG (ISC-enriched organoids [3]; Dose 5.00 uM): −1.168
Z.CTG (ISC-enriched organoids [3]; Dose 20.00 uM): 1.496
repSSMD.CTG (ISC-enriched organoids [3]; Dose 20.00 uM): 0.952
Z.CTG (ISC-enriched organoids [3]; dose 10.00 uM): −1.380
repSSMD.CTG (ISC-enriched organoids [3]; dose 10.00 uM): −1.030
Z.LYZ.NS (ISC-enriched organoids [4]; Dose 2.50 uM): −1.251
repSSMD.LYZ.NS (ISC-enriched organoids [4]; Dose 2.50 uM): −1.701
Z.LYZ.NS (ISC-enriched organoids [4]; Dose 5.00 uM): −1.098
repSSMD.LYZ.NS (ISC-enriched organoids [4]; Dose 5.00 uM): −1.569
Z.LYZ.NS (ISC-enriched organoids [4]; Dose 20.00 uM): 0.522
repSSMD.LYZ.NS (ISC-enriched organoids [4]; Dose 20.00 uM): 0.930
Z.LYZ.NS (ISC-enriched organoids [4]; dose 10.00 uM): −0.671
repSSMD.LYZ.NS (ISC-enriched organoids [4]; dose 10.00 uM): −1.103

CC(C)(C)NC(=O)[C@H]1CC[C@H]2[C@@H]3CC[C@H]4NC(=O)C=C[C@]4(C)[C@H]3CC[C@]12C [Finasteride]
Z.CTG (ISC-enriched organoids [1]; Dose 0.08 uM): 0.360
Z.CTG (ISC-enriched organoids [1]; Dose 0.40 uM): −0.092
Z.CTG (ISC-enriched organoids [1]; Dose 2.00 uM): 0.174
Z.CTG (ISC-enriched organoids [1]; Dose 10.00 uM): −0.097
Z.LYZ.S (ISC-enriched organoids [2]; Dose 0.02 uM): −0.147
repSSMD.LYZ.S (ISC-enriched organoids [2]; Dose 0.02 uM): −0.197
Z.LYZ.S (ISC-enriched organoids [2]; Dose 0.04 uM): −1.996
repSSMD.LYZ.S (ISC-enriched organoids [2]; Dose 0.04 uM): −3.825
Z.LYZ.S (ISC-enriched organoids [2]; dose 0.08 uM): −1.859
repSSMD.LYZ.S (ISC-enriched organoids [2]; dose 0.08 uM): −2.574
Z.CTG (ISC-enriched organoids [3]; Dose 0.02 uM): 0.596
repSSMD.CTG (ISC-enriched organoids [3]; Dose 0.02 uM): 0.358
Z.CTG (ISC-enriched organoids [3]; Dose 0.04 uM): −1.623
repSSMD.CTG (ISC-enriched organoids [3]; Dose 0.04 uM): −0.994
Z.CTG (ISC-enriched organoids [3]; dose 0.08 uM): −0.099
repSSMD.CTG (ISC-enriched organoids [3]; dose 0.08 uM): −0.083
Z.LYZ.NS (ISC-enriched organoids [4]; Dose 0.02 uM): 0.445
repSSMD.LYZ.NS (ISC-enriched organoids [4]; Dose 0.02 uM): 0.362
Z.LYZ.NS (ISC-enriched organoids [4]; Dose 0.04 uM): −1.510
repSSMD.LYZ.NS (ISC-enriched organoids [4]; Dose 0.04 uM): −2.570
Z.LYZ.NS (ISC-enriched organoids [4]; dose 0.08 uM): −1.522
repSSMD.LYZ.NS (ISC-enriched organoids [4]; dose 0.08 uM): −2.177
